Reference: a flash point compilation (Sun et al. 2020)

SMILES	flash point [°C]
CCCCC(C)CC (stereo not drawn) [3-methylheptane]	6
N#CC1CC1 [cyclopropanecarbonitrile]	32
CCCCCCCI [1-iodoheptane]	79
CCCC(C)CC (stereo not drawn) [3-methylhexane]	-15
CCCCCC(=O)OC [methylhexanoate]	41
CCC(C)(C)C(C)C [2,3,3-trimethylpentane]	5
C=CCCCCCCC [1-nonene]	25
CCCCCCCCCS [1-nonanethiol]	79
CCCCCCC=O [heptanal]	40
CCCc1cccc(C)c1 [m-propyltoluene]	52
CCCC(=O)OC(C)C [isopropylbutanoate]	24
CC(C)(N)CO [2-amino-2-methyl-1-propanol]	68
C#CCO [2-propyn-1-ol]	36
CCCC(C)Br (stereo not drawn) [2-bromopentane]	21
OCC1CCCC1 [cyclopentylmethanol]	62
CCCCCCCc1ccccc1 [heptylbenzene]	95
CC(C)=CC(C)(C)C [2,4,4-trimethyl-2-pentene]	-1
CC(C)(C)CCC(C)(C)C [2,2,5,5-tetramethylhexane]	16
CC(C)(C)Cc1ccccc1 [neopentylbenzene]	50
CCCC(C)Cl (stereo not drawn) [2-chloropentane]	1
CCCCCCCCCCN [1-decanamine]	85
C=CCCO [3-buten-1-ol]	32
C=CCCCCCCCCCCCCCC [1-hexadecene]	129
CCCCCC(=O)CCC [4-nonanone]	62
C=CCCCC=C [1,6-heptadiene]	-10
CCCCCCCCCCCS [1-undecanethiol]	109

SMILES	flash point [°C]
CC(C)C1CCCCC1 [isopropylcyclohexane]	35
CCC(C)C(C)(C)C(C)C (stereo not drawn) [2,3,3,4-tetramethylhexane]	31
CC(C)(C)OC=O [tert-butylformate]	-9
CCCC(C)O (stereo not drawn) [2-pentanol]	34
Cc1cccc(I)c1 [1-iodo-3-methylbenzene]	83
CC(C)C1CCCC1 [isopropylcyclopentane]	14
CCCC(C)(C)C [2,2-dimethylpentane]	-23
CC(=O)OC(C)c1ccccc1 (stereo not drawn) [1-phenylethylacetate]	91
CCCCNCCCC [dibutylamine]	47
CCC(=O)CC(C)CC (stereo not drawn) [5-methyl-3-heptanone]	43
CC/C=C\CC [cis-3-hexene]	-25
C=CC=C(C)C [4-methyl-1,3-pentadiene]	-18
CCC(C)C [2-methylbutane]	-51
CCCO [1-propanol]	23
CCCCCCC(=O)OC(=O)CCCCCC [heptanoicanhydride]	130
C=C(C)C(=O)OCC(C)C [isobutylmethacrylate]	41
C=CCSCC [allylethylsulfide]	16
CCCCCCCC(=O)OC [methyloctanoate]	69
C1CCC(C2CCCCC2)CC1 [bicyclohexyl]	92
CC(C)(C)c1ccco1 [2-tert-butylfuran]	7
CC1CCCO1 (stereo not drawn) [2-methyltetrahydrofuran]	-12
CCC(C)CC(CC)CC (stereo not drawn) [3-ethyl-5-methylheptane]	31
CCI [iodoethane]	-5
COC(=O)OC [dimethylcarbonate]	14
c1ccc(C2CCCCC2)cc1 [cyclohexylbenzene]	98
C/C=C\CC [cis-2-pentene]	-46

SMILES	flash point [°C]
C=COC(=O)CC [vinylpropanoate]	6
CCCSSCC [ethylpropyldisulfide]	57
CCC(C)I (stereo not drawn) [2-iodobutane]	24
CN(C)c1ccccc1 [N,N-dimethylaniline]	75
CCC#CCC [3-hexyne]	-14
CCC(C)C(C)(C)C (stereo not drawn) [2,2,3-trimethylpentane]	-3
CSC(C)(C)C [tert-butylmethylsulfide]	-3
COc1ccccc1C [2-methylanisole]	51
CCCCC(C)(C)C [2,2-dimethylhexane]	-3
C=CC(=C)Cl [2-chloro-1,3-butadiene]	-20
C=CC(=C)C [isoprene]	-48
CCC(CC)C(=O)O [2-ethylbutanoicacid]	87
CCCCCCCCCCO [1-decanol]	108
CCCCSSCCCC [dibutyldisulfide]	93
CCCCCCC(O)CC (stereo not drawn) [3-nonanol]	79
CCCOC(=O)CCC [propylbutanoate]	35
CC(C)COC(=O)C(C)C [isobutyl2-methylpropanoate]	38
OCCCCO [1,4-butanediol]	121
CC1CCCCC1=O (stereo not drawn) [2-methylcyclohexanone]	46
CCC(C)NC(C)CC (stereo not drawn) [di-sec-butylamine]	24
CCN(C=O)CC [N,N-diethylformamide]	65
CCCCNC(C)=O [N-butylacetamide]	115
CCCOC(=O)CC [propylpropanoate]	22
C=CC=O [acrolein]	-19
CC(C)(C)N [tert-butylamine]	-38
C#CCCCCC#C [1,7-octadiyne]	23

SMILES	flash point [°C]
C=CCOC(=O)C(=C)C [allylmethacrylate]	37
C=CCCCCC(C)C [7-methyl-1-octene]	18
COC(C)=O [methylacetate]	-13
CC(O)CCO (stereo not drawn) [1,3-butanediol]	109
CCCCCC[N+](=O)[O-] [1-nitrohexane]	72
CCCCCCCCCCCCO [1-dodecanol]	127
CC(C)N [isopropylamine]	-32
COC(=O)C(C)C [methyl2-methylpropanoate]	3
CC/C=C/CCC [trans-3-heptene]	-7
CCC(=O)OC(C)c1ccccc1 (stereo not drawn) [1-phenylethylpropionate]	106
Cc1ccccc1Br [2-bromotoluene]	78
CN(C)CCCN [N,N-dimethyl-1,3-propanediamine]	32
CCCN(CCC)CCC [tripropylamine]	35
CN(CCO)CCO [N-methyldiethanolamine]	137
C=CC(=O)OC1CCCCC1 [cyclohexylacrylate]	68
C=CCI [3-iodo-1-propene]	16
C=C(C)C(=O)OCCC [propylmethacrylate]	35
Cc1cccc(O)c1 [m-cresol]	86
CC(C)CCc1ccccc1 [isopentylbenzene]	62
CCC(CC)C(C)(C)C [3-ethyl-2,2-dimethylpentane]	13
CC(C)c1cccc(O)c1 [3-isopropylphenol]	104
CC(=O)C(C)(C)C [pinacolone]	5
CC(C)c1ccccc1O [2-isopropylphenol]	89
CCCCCC=O [hexanal]	25
CCCCCC(C)O (stereo not drawn) [2-heptanol]	59
COC1CCCCC1 [cyclohexylmethylether]	21

SMILES	flash point [°C]
CCC(CC)C(C)C [3-ethyl-2-methylpentane]	3
CCC(C)CC(C)(C)C (stereo not drawn) [2,2,4-trimethylhexane]	13
CC(C)(C)C(C)(C)C [2,2,3,3-tetramethylbutane]	-0
C/C=C/CCCCC [trans-2-octene]	14
Cc1ccc(C)cc1 [p-xylene]	25
CCCCCOC(=O)CC [pentylpropanoate]	53
CC1OCCO1 [2-methyl-1,3-dioxolane]	-2
SCc1ccccc1 [benzylmercaptan]	70
CCCC(CC)CC [3-ethylhexane]	5
CCOC(=O)c1ccccc1C(=O)OCC [diethylphthalate]	160
C1CCCCCCC1 [cyclooctane]	28
C1=CC2C=CC1C2 [2,5-norbornadiene]	-11
CCCCSCCCC [dibutylsulfide]	60
CCC1CCCCC1=O (stereo not drawn) [2-ethylcyclohexanone]	59
CSSC [dimethyldisulfide]	10
CCCCCCCCC(C)=O [2-decanone]	85
C=CCC(C)CCC (stereo not drawn) [4-methyl-1-heptene]	2
C=CC(C)CCC (stereo not drawn) [3-methyl-1-hexene]	-18
CCCC[N+](=O)[O-] [1-nitrobutane]	47
O=[N+]([O-])C1CCCCC1 [nitrocyclohexane]	81
SC1CCCC1 [cyclopentanethiol]	25
COC1C=CC(OC)O1 (stereo not drawn) [2,5-dimethoxy-2,5-dihydrofuran]	47
CC(=O)C1CC1 [cyclopropylmethylketone]	13
CSCCC=O [4-thiapentanal]	61
